Patent US20110130374A1, “Small Pyrimidine Derivatives and Methods of Use Thereof” (BIOSEARCH(2007) LTD., priority 2009, published 2011)

What was measured:
[1] = tested on: MDA-MB-468 breast cancer cells; assay: Transwell cell migration assay, MDA-MB-468 breast cancer cells; type: cell-based; conditions: MDA-MB-468, 12.5 μM, 24 h, 8 μm pore (FIG. 2)
Experimental: MDA-MB-231 (HTB-26, ATCC, Manassas, Va., USA) and MDA-MB-468 (HTB-132, ATCC, Manassas, Va., USA) breast cancer cell lines and DU 145 (HTB-81, ATCC, Manassas, Va., USA) prostate cancer cell line grown in RPMI medium supplement with 10% FBS were starved for 24 hours in medium without FBS. After 24 hours, 5×10^4 cells in FBS free medium were placed in the upper chamber of 24-well Transwell apparatus (CORNING TRANSWELL® polycarbonate membrane inserts, 8 μm pore size) with solvent (DMSO/PEG400) or 12.5 μM Compound 1 as indicated. Medium with FBS and Compound 1 was added to the bottom chamber. Twenty-four hours later the cells from the upper chamber were removed with a cotton swab. Cells that migrated to the lower side of the membrane were stained with Calcein-AM (Sigma) and images were taken with a fluorescence microscope.

THP1 monocytes = assay: Transwell cell migration assay, THP1; type: cell-based; conditions: Homo sapiens, THP-1; THP1, Monocyte
Description: (§1) A375 (melanoma) (CRL-1619, ATCC, Manassas, Va., USA), A431 (melanoma) (CRL-2592, ATCC, Manassas, Va., USA), A2058 (melanoma) (CRL-11147, ATCC, Manassas, Va., USA), MDA-MB-231 (breast) (HTB-26, ATCC, Manassas, Va., USA), LS175T (colon) (ATCC, Manassas, Va., USA), HT29 (colon) (HTB-38, ATCC, Manassas, Va., USA), PC3 (prostate) (CRL-1435, ATCC, Manassas, Va., USA), Panc03.27 (pancreatic) (ATCC, Manassas, Va., USA), 4T1 (breast-mouse) (CRL-2539, ATCC, Manassas. Va., USA), D122 (lung-mouse) (the Weizmann Institute of Science), D122-luc (lung-mouse) (the Weizmann Institute of Science), and B16 F10.9 (melanoma-mouse) cells (Caliper Life Sciences, Hopkinton Mass.), were grown in RPMI medium supplemented with 10% FBS. HUVEC cells were grown in Endothelial Cell Growth Medium 2 and THP1 cells were grown in RPMI medium supplemented with 10% FBS, 2 mM L-Glutamine, 1.5 g/L sodium bicarbonate, 10 mM Hepes, 1 mM sodium pyruvate, 4.5 g/L glucose and 0.05 mM 2-mercaptoethanol. The cells were starved for 24 hours in medium without FBS. […] Cells that migrated to the lower side of the membrane were stained with Calcein-AM (Sigma) and images were taken with a fluorescence microscope. The number of migrating cells was quantified by ImageJ software and the IC50 values were calculated using Prism software (Graphpad).

[2] = tested on: B16F10 murine melanoma cells; assay: Anti-metastasis assay: lung metastases in mice implanted with B16F10 melanoma cells; type: in vivo, female B6D2F1 mice; conditions: i.p., start D3, foci count on D17 vs comparator mice; dose regimen of the value not stated (FIGS. 4A and B)
Experimental: Compound 1 and Compound 3 were tested for efficacy in inhibiting lung metastases in female B6D2F 1 mice implanted with B16F10 murine melanoma cells. Tumors were initiated on Day 1 (D1) by intravenously (i.v.) injecting 1×10^5 B16F10 tumor cells into the tail vein of test mice. Mice were sorted into three vehicle-treated control groups (n=20 or 10/group) and nine treatment groups (n=10/group). Compound 1 and Compound 3 monotherapies were administered at 10 mg/kg (2 mg/mL at 5 mL/kg) and at 20 mg/kg (4 mg/mL at 5 mL/kg), intraperitoneally (i.p.), daily for fourteen doses starting on D3 (qd×14 (start D3)). Compound 1 and Compound 3 monotherapies also were administered at 20 mg/kg (4 mg/mL at 5 mL/kg), i.p., twice daily for twenty-nine doses starting on D3 (bid×14.5 (start D3)). […]
The study endpoint was defined as 100 metastases per lung set in animals periodically sampled from the saline control group. […] All animals remaining on study were euthanized, their metastases were counted, and the mean±SEM foci count for each group was calculated. Efficacy was determined by an analysis of percent inhibition, the percent change in the mean foci count on D17 for treated versus comparator mice, and by statistical assessment of differences in foci counts between treated and comparator mice.

4T1 (breast-mouse) cells = assay: Transwell cell migration assay, 4T1; type: cell-based
Description: as §1

[3] = tested on: B16 F10.9 (melanoma-mouse) cells; assay: Transwell cell migration assay, B16 F10.9; type: cell-based
Description: as §1

A2058 (melanoma) cells = assay: Transwell cell migration assay, A2058; type: cell-based; conditions: Homo sapiens
Description: as §1

[4] = tested on: D122-luc (lung-mouse) cells; assay: Transwell cell migration assay, D122-luc; type: cell-based
Description: as §1

A375 cells = assay: Cell viability, WST-1 reagent, A375 cells grown in two-dimension; type: cell-based; conditions: WST-1, 72 h post treatment
Experimental: Compound 1 (PRT7000467), Compound 2 (PRT7041128), and Compound 3 (PRT7081582) are not toxic to cells grown in two-dimension. A375 cells were cultured with RPMI and 10% FBS. The cells were treated with different concentrations of Compound 1 (PRT7000467) and Compound 2 (PRT7041128), then the viability of the cells was determined seventy-two hours post treatment using WST-1 reagent (Roche) (FIG. 1B)

A431 (melanoma) cells = assay: Transwell cell migration assay, A431; type: cell-based; conditions: Homo sapiens, A-431
Description: as §1

Compound	cell migration (Transwell, images) [1]	IC50 (THP1 monocytes) [µM]	efficacy in inhibiting lung metastases (percent inhibition of mean foci count) [2] [%]	IC50 (4T1 (breast-mouse) cells) [µM]	IC50 [3] [µM]	IC50 (A2058 (melanoma) cells) [µM]	IC50 [4] [µM]	toxicity to cells grown in two-dimension (A375 cells)	IC50 (A431 (melanoma) cells) [µM]
Cc1cc(C)nc(NS(=O)(=O)c2ccc(NC(=O)/C(=C\c3cccs3)NC(=O)c3cccs3)cc2)n1 [Compound 1]	inhibits the migration	> 30	51	0.8	0.2	3.5	1.6	not toxic	1.1
Cc1cc(S(=O)(=O)Nc2ncccn2)ccc1NC(=O)/C(=C\c1cccs1)NC(=O)c1cccs1 [Compound 3]			45					not toxic	
